Laboratory results taken from US12461089B2, “Olfactory receptor involved in the perception of musk fragrance and the use thereof” (ChemoSensoryX Biosciences SA, priority 2017, dated 2025).

How the values were obtained:
Format in all cases: cell-based
[1] = target: T1, chimeric OR5A2_variant 1 (Homo sapiens, UniProt Q8NGI9, F293L/H55R/I289L/M58T); test: Luciferase reporter concentration-response analysis on chimeric OR5A2_variant 1; conditions: CRE-luciferase; empty vector pEFIBRHO as control
T1 construct: expressed in transfected cells; host or cells: HEK293T-RTP1A1/RTP2
T1 sequence (Q8NGI9 with tags, fused parts or gaps H55R/M58T/I289L/F293L): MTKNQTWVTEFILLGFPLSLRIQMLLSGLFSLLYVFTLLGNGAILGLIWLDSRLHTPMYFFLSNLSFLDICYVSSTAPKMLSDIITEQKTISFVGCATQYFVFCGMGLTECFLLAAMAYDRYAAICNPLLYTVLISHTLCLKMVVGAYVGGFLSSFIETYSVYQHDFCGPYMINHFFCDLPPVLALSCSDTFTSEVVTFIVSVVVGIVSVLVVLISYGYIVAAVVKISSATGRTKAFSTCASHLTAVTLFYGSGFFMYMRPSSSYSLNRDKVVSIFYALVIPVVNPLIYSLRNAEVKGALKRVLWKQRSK

[2] = target: T2, OR2A5 (Homo sapiens, UniProt Q96R48, A202S/A255T/I126V); test: Luciferase reporter concentration-response analysis on OR2A5; conditions: CRE-luciferase
T2 construct: expressed in transfected cells; host or cells: HEK293T-RTP1A1/RTP2
T2 sequence (Q96R48 1-311 I126V/A202S/A255T): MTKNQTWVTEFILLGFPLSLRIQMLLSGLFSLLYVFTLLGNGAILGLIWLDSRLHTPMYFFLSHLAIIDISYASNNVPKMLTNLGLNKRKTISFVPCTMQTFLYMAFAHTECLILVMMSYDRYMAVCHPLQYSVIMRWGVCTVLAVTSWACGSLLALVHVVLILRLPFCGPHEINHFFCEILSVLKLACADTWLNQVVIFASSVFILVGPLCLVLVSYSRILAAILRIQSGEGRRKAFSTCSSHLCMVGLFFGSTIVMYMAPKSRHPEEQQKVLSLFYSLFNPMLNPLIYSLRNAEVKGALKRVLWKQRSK
Description: HEK293T-RTP1A1/RTP2 cells were maintained in minimal essential medium (EMEM, Lonza) containing 10% fetal bovine serum (M10). These cells were generated by transfecting HEK293T with an expression vector containing the sequences of the chaperone proteins RTP1A1 and RTP2 and a resistance gene to puromycin, using Lipofectamine 2000. The recombinant cell population, used in these experiments, was selected by adding 10 μg/ml of puromycin into the culture medium and subsequently subcloned (WO 2014/191047 A1).
Odorant molecules were diluted at a concentration of 1 mole/liter (M) into dimethyl sulfoxide (DMSO) to generate stock solutions.
For concentration-response analysis, serial dilutions of the tested molecules were prepared from stock solutions in EMEM plated into 96-well plates.
For the initial deorphanisation screening and dose-response analysis, a Luciferase-based gene reporter assay (Promega, Leiden, The Nederlands) was used. Briefly, cells were platted on Poly-D-lysine-coated 96-well and transfected with a plasmid containing the CRE-luciferase and a plasmid containing the olfactory receptor. Sixteen hours after transfection, the culture medium was replaced by serum-free EMEM containing the tested compounds at a determined concentration. After four hours of incubation at 37° C. degree, cells were lysed and processed for luminescence measurement. Luminescene emission was recorded. Results were expressed as luciferase activity (Relative […] Unit (RLU)) or as percentage of the response induced by 10 μM of the adenylate cyclase activator Forskolin. An empty plasmid is used as negative control.
In 1998, Krautwurst and collaborators have provided a model system for the study of ligand specificity and structure-function relationships for olfactory receptors (Krautwurst et al., 1998 Cell 95, 917-26). […] Based on their publication, a chimeric OR5A2_variant 1 olfactory receptor was created containing the TM2-TM7 amino acid sequence of OR5A2_variant 1 flanked by the N-teminal and C-terminal sequence of the olfactory receptor OR2A5 (cf. SEQ ID NO: 12). This chimeric OR5A2_variant 1 receptor shared 86 percent identity with the native OR5A2_variant 1 receptor (FIG. 6A and SEQ ID NO: 10).
To test if the amino acids substitution could impact the musk sensitivity, and specificity and to validate the Krautwurst's model, luciferase assays were performed as described previously after transfection of the chimeric OR5A2_variant 1. Cells were treated with semi-logarithmic serial dilutions of musk compounds from the four structurally different groups described earlier.

[3] = target: T3, OR11A1 (Homo sapiens, UniProt Q9GZK7); test: Luciferase reporter concentration-response analysis on OR11A1
T3 construct: expressed in transfected cells; host or cells: HEK293T-RTP1A1/RTP2
T3 sequence (Q9GZK7 1-315): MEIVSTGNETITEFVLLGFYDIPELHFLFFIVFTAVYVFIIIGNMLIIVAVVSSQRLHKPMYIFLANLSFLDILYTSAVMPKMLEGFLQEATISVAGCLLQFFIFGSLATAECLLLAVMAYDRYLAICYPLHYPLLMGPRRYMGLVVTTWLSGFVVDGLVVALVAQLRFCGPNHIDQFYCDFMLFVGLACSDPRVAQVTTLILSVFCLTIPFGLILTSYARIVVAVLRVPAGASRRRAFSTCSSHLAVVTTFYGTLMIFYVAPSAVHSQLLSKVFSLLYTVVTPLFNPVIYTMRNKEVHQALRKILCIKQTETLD

Row | Compound | activation of chimeric OR5A2_variant 1, concentration-response [1] | activation of OR2A5, concentration-response [2] | EC50 [3]
1 | CC(=O)c1c(C)c([N+](=O)[O-])c(C(C)(C)C)c([N+](=O)[O-])c1C [Musk Ketone, 4-tert-butyl-2,6-dimethyl-3,5-dinitroacetophenone] | shows dose response curves | but not the OR2A5 | –
2 | Cc1c([N+](=O)[O-])c(C)c([N+](=O)[O-])c(C(C)(C)C)c1[N+](=O)[O-] [Musk Xylene, 1-tert-butyl-3,5-dimethyl-2,4,6-trinitrobenzene] | shows dose response curves | but not the OR2A5 | 1.86 µM
3 | O=C1CCC/C=C\CCCCCCCCCC1 [Velvione] | shows dose response curves | but not the OR2A5 | –
